40 compounds from ChEMBL document CHEMBL1137172, “A library synthesis of 4-hydroxy-3-methyl-6-phenylbenzofuran-2-carboxylic acid ethyl ester derivatives as anti-tumor agents” (Bioorg Med Chem Lett, 2004) can be followed below.

The nature of data set [1]: Effective concentration required for cytotoxicity against human VA-13 cell line. The data set is classed as functional, cell-based.
Data set [2] is described as follows: Partition coefficient (logP). It is filed as physicochemical. Particulars: octanol/water.
Another data set concerns WI-38. Nature of the data set: Effective concentration required for cytotoxicity against normal human WI-38 cell line. The data set is classed as functional, cell-based.

≈ marks a conversion by molar mass, not a printed value. Bounds are passed on as bounds.

In turn, `CCOC(=O)c1oc2cc(CC(C)(C)C)cc(O)c2c1C` returned an EC50 in data set [1] of over 4 µg/mL.

In turn, `CCOC(=O)c1oc2cc(-c3ccco3)cc(O)c2c1C` returned an EC50 in data set [1] of 0.18 µg/mL (≈ 0.629 µM).

Take `CCOC(=O)c1oc2cc(-c3ccc(Cl)cc3)cc(O)c2c1C`: the EC50 in data set [1] is over 4 µg/mL.

`CCOC(=O)c1oc2cc(-c3ccc(O)cc3)cc(O)c2c1C` displayed an EC50 in data set [1] of 0.075 µg/mL (≈ 0.24 µM).

As to `CCOC(=O)c1oc2cc(-c3c(Cl)cccc3Cl)cc(O)c2c1C`, the EC50 in data set [1] is over 4 µg/mL.

Turning to `CCOC(=O)c1oc2cc(-c3ccc(OCC)cc3)cc(O)c2c1C`, the EC50 in data set [1] is over 4 µg/mL.

The compound `COc1ccc(C(=O)c2oc3cc(-c4cccc(F)c4)cc(O)c3c2C)c(OC)c1` gave an EC50 in data set [1] of 0.03 µg/mL (≈ 0.0738 µM). The compound also came in with a logP in data set [2] of 2.7.

For the compound `CCOC(=O)c1oc2cc(-c3ccccc3)cc(O)c2c1C`, the EC50 in the data set on WI-38 was over 4 µg/mL; in data set [1], 0.04 µg/mL (≈ 0.135 µM). The logP in data set [2] amounted to 2.6.

In data set [1], `COc1cccnc1C(=O)c1oc2cc(-c3ccccc3)cc(O)c2c1C` returned an EC50 of 0.028 µg/mL (≈ 0.0779 µM). In data set [2], this compound registered a logP of 2.2.

Turning to `CCOC(=O)c1oc2cc(-c3ccccc3OCc3ccccc3)cc(O)c2c1C`, the EC50 in data set [1] was over 4 µg/mL.

The compound `CCOC(=O)c1oc2cc(-c3ccc(OCc4ccccc4)cc3)cc(O)c2c1C` returned an EC50 in data set [1] of over 4 µg/mL.

As for `CCOC(=O)c1[nH]c2cc(-c3ccccc3)cc(O)c2c1C`, the EC50 in data set [1] is 0.47 µg/mL (≈ 1.59 µM). In data set [2], this compound gave a logP of 2.6.

In turn, `CCOC(=O)c1oc2cc(-c3cccc(C)c3)cc(O)c2c1C` displayed an EC50 in data set [1] of 0.08 µg/mL (≈ 0.258 µM).

Take `COc1ccc(C(=O)c2oc3cc(-c4ccccc4)cc(O)c3c2C)c(OC)c1`: in data set [1], the EC50 came out at 0.04 µg/mL (≈ 0.103 µM). Further, the logP in data set [2] was 2.6.

The compound `CCOC(=O)c1oc2cc(-c3ccccc3OC)cc(O)c2c1C` gave an EC50 in data set [1] of 0.38 µg/mL (≈ 1.16 µM).

In data set [1], `CCOC(=O)c1oc2cc(-c3cccc(O)c3)cc(O)c2c1C` gave an EC50 of 0.52 µg/mL (≈ 1.66 µM).

`CCOC(=O)c1oc2cc(-c3cccc(N)c3)cc(O)c2c1C` had an EC50 in data set [1] of 0.09 µg/mL (≈ 0.289 µM).

In turn, `CCOC(=O)c1oc2cc(-c3ccc(OC)cc3)cc(O)c2c1C` showed an EC50 in data set [1] of over 4 µg/mL.

The compound `CCOC(=O)c1oc2cc(-c3ccc(OC)c(OC)c3)cc(O)c2c1C` came in with an EC50 in data set [1] of over 4 µg/mL.

Consider `CCOC(=O)c1oc2cc(-c3cccc(F)c3)cc(O)c2c1C`, for which, in data set [1], the EC50 was 0.017 µg/mL (≈ 0.0541 µM). In data set [2], this compound returned a logP of 2.7.

`CCOC(=O)c1oc2cc(-c3ccc(Cl)cc3Cl)cc(O)c2c1C` showed an EC50 in data set [1] of over 4 µg/mL.

Compound `CCOC(=O)c1oc2cc(-c3cccc(Cl)c3)cc(O)c2c1C` came in with an EC50 in data set [1] of 0.08 µg/mL (≈ 0.242 µM).

Consider `CCOC(=O)c1oc2cc(-c3cccc(OC)c3)cc(O)c2c1C`, for which, in data set [1], the EC50 was determined as 0.08 µg/mL (≈ 0.245 µM).

Regarding `COc1cccnc1C(=O)c1oc2cc(-c3cccc(F)c3)cc(O)c2c1C`, in data set [1], the EC50 was determined as 0.027 µg/mL (≈ 0.0715 µM). The compound further displayed a logP in data set [2] of 2.3.

Compound `CCOC(=O)c1oc2cc(-c3ccccc3Cl)cc(O)c2c1C` displayed an EC50 in data set [1] of 0.35 µg/mL (≈ 1.06 µM).

`CCOC(=O)c1oc2cc(-c3cccc([N+](=O)[O-])c3)cc(O)c2c1C` yielded an EC50 in data set [1] of 0.075 µg/mL (≈ 0.22 µM).

In the case of `CCOC(=O)c1oc2cc(-c3ccccc3Br)cc(O)c2c1C`, the EC50 in data set [1] was determined as 0.39 µg/mL (≈ 1.04 µM).

Compound `CCOC(=O)c1oc2cc(-c3ccc(Br)cc3)cc(O)c2c1C` gave an EC50 in data set [1] of over 4 µg/mL.

With `CCOC(=O)c1oc2cc(-c3cccc(Br)c3)cc(O)c2c1C`, in data set [1], the EC50 was determined as 0.085 µg/mL (≈ 0.227 µM).

Compound `CCOC(=O)c1oc2cc(C3CCCCC3)cc(O)c2c1C` returned an EC50 in data set [1] of over 4 µg/mL.

With `CCOC(=O)c1oc2cc(-c3ccc(F)cc3)cc(O)c2c1C`, the EC50 in data set [1] amounted to 0.37 µg/mL (≈ 1.18 µM).

In turn, `CCOC(=O)c1oc2cc(-c3ccccc3F)cc(O)c2c1C` showed an EC50 in data set [1] of 0.048 µg/mL (≈ 0.153 µM).

In data set [1], `CCOC(=O)c1oc2cc(-c3ccc(C)cc3)cc(O)c2c1C` registered an EC50 of over 4 µg/mL.

`CCOC(=O)c1oc2cc(-c3cccc(C(F)(F)F)c3)cc(O)c2c1C` displayed an EC50 in data set [1] of 0.7 µg/mL (≈ 1.92 µM).

With `CCOC(=O)c1oc2cc(-c3ccccc3O)cc(O)c2c1C`, the EC50 in data set [1] was determined as 0.31 µg/mL (≈ 0.993 µM).

In the case of `CCOC(=O)c1oc2cc(-c3cccc(OCc4ccccc4)c3)cc(O)c2c1C`, the EC50 in data set [1] was found to be 0.85 µg/mL (≈ 2.11 µM).

`COc1ccc(C(=O)c2[nH]c3cc(-c4cccc(F)c4)cc(O)c3c2C)c(OC)c1` displayed an EC50 in data set [1] of 0.12 µg/mL (≈ 0.296 µM). The same compound had a logP in data set [2] of 2.7.

Regarding `CCOC(=O)c1oc2cc(-c3c(F)cccc3Cl)cc(O)c2c1C`, the EC50 in data set [1] is over 4 µg/mL.

`CCOC(=O)c1oc2cc(-c3cccs3)cc(O)c2c1C` gave an EC50 in data set [1] of 0.16 µg/mL (≈ 0.529 µM).

Compound `CCOC(=O)c1oc2cc(-c3ccc(OCCc4ccccc4)cc3)cc(O)c2c1C` displayed an EC50 in data set [1] of over 4 µg/mL.
